Consider three compounds from US12078634B2, “Broad spectrum kinase binding agents” (Promega Corporation, priority 2018, dated 2024).

For experiment [1], the system named is kinase/NanoLuc® (Nluc) fusion proteins. In words: NanoBRET relative BRET signal of kinase tracers against a panel of kinase/NanoLuc fusions in live cells. Format: cell-based. To be noted: HEK293 cells, 2 hours, 0.5 uM CC-1804, CC-1852, or 1 uM CC-1294; compared to CC-1294. As for the experimental part:
FIG. 1A-B. Summary of the BRET results generated with kinase tracers against a large panel of kinase/NanoLuc® fusions expressed in live cells. Assay signals were assessed by taking the ratio of BRET in the presence of tracer/no tracer control. Assays are categorized as follows: >3-fold signal (green cells), 2-3 fold signal (yellow cells), and 1.5-2 fold signal (red cells).
FIG. 1C-F. Individual BRET signals observed between the broad-spectrum kinase tracers and individual kinase/NanoLuc® fusions expressed in live cells. Assay signals were assessed by taking the ratio of BRET in the presence of tracer/no tracer control. Assays are categorized as follows: >3-fold signal (green cells), 2-3 fold signal (yellow cells), and 1.5-2 fold signal (red cells).
Experiments were conducted during development of embodiments herein to derive a comprehensive analysis of intracellular kinase target engagement using NanoBRET™ tracers derived from CC-1294 versus NanoBRET™ tracers derived from novel inhibitors. […] NanoBRET was measured on a Glomax® Discover plate reader. To determine relative BRET signals, BRET arising from the tracer was divided by BRET in the absence of tracer.
A general note: In BRET a luciferase serves as donor, and the signal depends on an acceptor being close.

In experiment [2] the test system is kinase/Nluc fusions.
Method: NanoBRET™ assays were run by competitive displacement of NanoBRET™ tracers in living HEK293 cells.
Values were measured by competitive displacement of NanoBRET™ tracers in living cells.
In wells of 96-well plates, 20,000 HEK293 cells per well were transfected with kinase/Nluc fusions expressed from pFN31K and pFN32K plasmids. Transfections were performed using 3:1 FuGENE HD:plasmid ratios. 24 hours post transfection, cells were treated for 2 hours in the presence of tracer and varying concentration of control inhibitor indicated. After incubation, NanoBRET™-TE substrate/inhibitor solution was added to a final concentration of 1×, and BRET was measured on a Glomax® Discover plate reader.
For experiment [3], the system named is kinase/Nluc fusions. The experiment is described as follows: NanoBRET fractional occupancy by competitive displacement of NanoBRET tracers in living HEK293 cells. Format: cell-based. As to conditions: of the 200 kinases evaluated, 300 nM test compound, 2 hours, CC-1861 vs CTx (FIG. 5). As for the experimental part: Transfections were performed using 3:1 FuGENE HD:plasmid ratios.

In the case of `NC(=O)c1ccccc1Nc1nc(Nc2cccc(N3CCNCC3)c2)ncc1Cl` [CC-1852], in experiment [1], the “target engagement/kinase profiling breadth (relative BRET signal, tracer / no tracer)” value is reported as “unexpectedly broad spectrum target engagement/kinase profiling”.

Regarding `NC(=O)c1ccccc1Nc1nc(Nc2ccc(N3CCNCC3)cc2)ncc1Cl` [CC-1861, 2-((5-chloro-2-((4-(piperazin-1-yl)phenyl)amino)pyrimidin-4-yl)amino)benzamide], the “inhibitor potency compared to CTx” value in the experiment on kinase/Nluc fusions [2] (HEK293 cells, 2 hours, tracer plus varying concentration of inhibitor (FIG. 7)) is “increased inhibitor potency”. Further, the “intracellular affinity compared to CTx-0294885” value in the experiment with kinase/Nluc fusions [2] (living HEK293 cells, four targets tested (FIG. 7)) is “stronger than CTx-0294885 for three of the four targets tested”. With `CNC(=O)c1ccccc1Nc1nc(Nc2ccc(N3CCNCC3)cc2)ncc1Cl` [CTx-0294885, 2-((5-chloro-2-((4-(piperazin-1-yl)phenyl)amino)pyrimidin-4-yl)amino)-N-methylbenzamide], in the experiment on kinase/Nluc fusions [3], the “number of kinases that preferred the compound over the other” value was found to be 4.
